“Also recorded” adds a separate entry of the source. Values belong to the compound of their own block, whether it stands above or below them.
Legend:
cellular reprogramming = experiment: Enhancement of cellular reprogramming by nuclear receptor ligands; format: cell-based
Mouse fibroblasts = experiment: Induction of pluripotency by incubation of fibroblasts with poly-Arg transcription factor proteins; format: cell-based; conditions: agent added during protein-induced reprogramming
Protocol: Mouse fibroblasts were grown in mESC medium supplemented with 8 μg/ml of either Oct4/Sox2/Klf4 or Oct4/Sox2/Klf4/Myc (all proteins comprising poly-Arg as described above) for 6-8 hours, washed, and incubated for 2-3 days in mESC media without the above-listed transcription factors. This (4-12 hours with, 1-3 days without) was repeated a number (1, 2, 3, 4, or more) of times and then the cells were cultures in mESC for two weeks.

[1] = tested on: OG2 MEFs transduced with OK (Oct4 and Klf4); experiment: iPSC generation from OK-transduced OG2 MEFs (GFP+ colonies), including second synergist screen with BIX; format: cell-based, mouse; conditions: for outcome in second synergist screen: 1 μM BIX plus individual compound at 0.5-2 μM, not further followed up; for effect on reprogramming of OK transduced MEFs in the second screen: in the presence of 1 μM BIX, FIG. 3: 0.04 μM RG108, 2 μM BayK
Protocol: Primary 129S2/SvPasCrlf (primary screen) or ROSA26^+/−/OG2^+/− (secondary screen) MEFs were plated onto Matrigel (1:50; BD Biosciences, Bedford, Mass.) coated dishes at a density of 3.5×10^4 cells per well of a 6-well plate. Twenty-four hours later, these cells were transduced overnight with defined retroviruses at 37° C., 5% CO2. Twelve to fourteen hours later, the media on the transduced cells was changed to mESC medium [Knockout DMEM, 10% ES-qualified FBS, 10% Knockout serum replacement, 1% Glutamax, 1% Non-essential amino acids, penicillin/streptomycin, 0.1 mM β-mercaptoethanol, 1% EmbryoMax ESC Qualified Nucleosides (Millipore, Temecula, Calif.), and 10^3 U/ml LIF (Millipore)] (all products were from Invitrogen, Carlsbad, Calif., except where mentioned). On that same day, individual small molecules from our known drug collection were added to the cells at a range between 0.5 and 2 μM. Compound treatment was continued for 10-14 days; the cells were fixed and stained on day 14-21 using a standard ALP detection kit (Millipore). For the second screen, 1 μM BIX was added to the mESC medium 1 day after transduction. Five days later, in addition to 1 μM BIX, individual small molecule from the known drug collection was added to each well, at a range between 0.5 and 2 μM. Mouse ESC media with defined small molecules was refreshed every three days until colonies with a similar morphology to mESCs were observed, which was usually between 14-21 days after transduction. […] Further characterization studies and repeats were carried either on primary 129S2/SvPasCrlf or ROSA26^+/−/OG2^+/− MEFs. When ROSA26^+/−/OG2^+/− MEFs were used, the iPSC colonies could also be identified through GFP expression, as a marker of Oct4 expression. Once iPSC colonies were identified, they were picked for expansion on MEF feeder cells in mESC medium.

non-iPS cells = experiment: MEK inhibitor applied at late stage of reprogramming as selection: growth of non-iPS cells; format: cell-based, mouse; conditions: late stage of reprogramming (after Oct4-GFP activation)
Description: (§1) Finally, we observed that the application of a specific small molecule inhibitor of MEK, PD0325901, to late stage of reprogramming (e.g. after Oct4-GFP activation) can serve as an excellent selection strategy for generating iPS cells. Due to the very low efficiency of reprogramming, iPS cells are typically selected out by utilizing reporter (e.g. Neo/Puro or GFP) that is under control of the regulatory elements of a pluripotency marker using genetically modified somatic cell lines, or manually picked out based on cell morphology. While the later method applicable to genetically unmodified cells is better suited for ultimate clinical application of iPS cells, it is a much more tedious and less reliable technique that typically requires picking and propagating over several passages many colonies, only a small fraction of which would become true iPS cells efficiently. This is partly because that large percentage of similarly looking colonies may be partially reprogrammed cells and/or simply transformed cells, which grow rapidly and may interfere with growth and reprogramming of iPS cells. Consequently, having an alternative selection strategy for genetically unmodified cells would be highly desirable.

iPS cells = experiment: MEK inhibitor applied at late stage of reprogramming as selection: growth and stable reprogramming of iPS cells; format: cell-based, mouse; conditions: late stage of reprogramming (after Oct4-GFP activation)
Description: as §1

mES R1 cells = experiment: Proliferation assay; format: cell-based, mouse; conditions: 2 μM BayK, 1 μM BIX or both; 15, 24 and 48 hours; compared to DMSO, n=3
Protocol: mES R1 cells were plated onto gelatin-coated 6-well plates at a density of 2×10^5 cells/well in complete mES cell media. Upon cell attachment, app. 12 hours, the cells were treated either with DMSO, 1 μM BIX, 2 μM BayK, and a combination of both, in triplicate. At 15, 24 and 48 hours, the cells were detached using trypsin, and counted using a hemocytometer. Trypan blue (Sigma-Aldrich, St. Louis, Mo.) was used for dead cell exclusion.

[2] = tested on: 129 MEFs transduced with OK (Oct4 and Klf4); experiment: Screen for iPSC generation from OK-transduced 129 MEFs (ESC-like colony morphology, ALP staining); format: cell-based, mouse; conditions: in the absence of BIX
Protocol: Unmodified MEFs derived from E13-14 embryos of the 129 mice were used for the initial screen. MEFs were plated on Matrigel at 3.5×10^4 cells/well of a 6-well plate and transduced with OK (retroviral vectors expressing Oct4 and Klf4) alone. Within 14-21 days, treated cells were assessed for the appearance of colonies that had the characteristic embryonic stem cell (ESC), colony morphology and were positive for the pluripotency marker alkaline phosphatase (ALP). Such OK-transduced cells generated only a few small non-compact colonies, which were weakly positive for ALP expression. These colonies initially appeared within 21 days after viral transduction and were difficult to expand. Therefore, such assay system offered a clean background for the identification of small molecules having desirable reprogramming inducing activity. Using this system, compounds from a library of around 2000 known small molecules (see Experimental Procedures below) were screened and were identified as hits when they induced the appearance of ESC colonies that were strongly positive for ALP within 14-21 days after treatment. This image-based method provided a more accurate assessment of reprogramming as compared to homogenous reporter-based assay. BIX appeared to have the strongest effect with reproducible induction of more than 1-2 compact ESC-like colonies with high ALP expression. We observed that when MEFs were treated with BIX after OK viral transduction, compact colonies with strong ALP expression could be readily detected within approximately 14-21 days. These cells were also positive for Nanog, Oct4 and SSEA-1 expression. […] However, the reprogramming efficiency in MEFs transduced with OK and treated with BIX was still low, about 2 colonies/3.5×10^4 cells, in comparison to the four factor-induced reprogramming of MEFs or the OK/BIX NPC reprogramming (Shi, Y. et al., Cell Stem Cell, 2:525-528 (2008)). Therefore, we conducted a second screen using a similar protocol, but where BIX was added to the basal media after OK viral transduction. This provided a more permissive platform to identify new small molecules that could further improve reprogramming efficiency. More importantly, this second screen could facilitate discovery of small molecules that impact reprogramming in a more specific manner, for example by acting on signal transduction pathways rather than on histone or DNA modifying enzymes. In this second screen, we again assayed the library of around 2000 known small molecules (see Experimental Procedures), and confirmed two compounds that were able to act in a synergistic manner with BIX to improve reprogramming based on the criteria of the screen. […] Therefore, RG108 was not pursued further for this study. […]

[3] = tested on: Sox2 expression in OG2 MEFs; experiment: Assessment of SOX2 expression after compound treatment (semi-quantitative RT-PCR); format: cell-based, mouse; conditions: 2 μM BayK alone or with 1 μM BIX, 6 days
Protocol: OG2^+/−/ROSA26^+/− MEFs were plated onto 6-well plate at a density of 3.4×10^4 cells per well. On the following day, the cells were treated with DMSO, 1 μM BIX, 2 μM BayK, and a combination of both, in triplicate, for 6 days. The media was refreshed at day 3. RNA from each well was then isolated using the RNAeasy Mini Kit (Quiagen). Reverse transcription of the RNA was performed using the iScript™cDNA Synthesis Kit (BioRad, Hercules, Calif.). Amplification of endogenous Sox2 was done using primers previously published (Takahashi, K., Okita, K., Nakagawa, M., and Yamanaka, S. (2007). Induction of pluripotent stem cells from fibroblast cultures. Nat Protoc 2, 3081-3089; Takahashi, K., and Yamanaka, S. (2006). Induction of pluripotent stem cells from mouse embryonic and adult fibroblast cultures by defined factors. Cell 126, 663-676) with Platinum PCR SuperMix (Invitrogen) on a Mastercycler® ep gradient PCR machine (Eppendorf).

- cellular reprogramming (cellular reprogramming; at 5 μM): enhance cellular reprogramming
Compound: CC(C)C[C@H](NC(=O)OCC1c2ccccc2-c2ccccc21)C(=O)O [Fmoc-Leu]

Compound: Cc1c[nH]c(-c2cnc(NCCNc3ccc(C#N)cn3)nc2-c2ccc(Cl)cc2Cl)n1 [CHIR99021]
- efficiency and speed of development of pluripotent cells (Mouse fibroblasts): improved efficiency and speed of development of pluripotent cells

Compound: CCN(CC)CCCCNc1ncc2cc(-c3cc(OC)cc(OC)c3)c(NC(=O)NC(C)(C)C)nc2n1 [PD173074]
- outcome in second synergist screen [1]: primary hits

Compound: Cc1cc(Nc2ncc3c(n2)N(C)C(=O)N(c2cc(NC(=O)c4cccc(C(F)(F)F)c4)ccc2C)C3)n(C)n1 [pluripotin]
- outcome in second synergist screen [1]: primary hits

Compound: c1nc2nc(Nc3ccc(N4CCOCC4)cc3)nc(NC3CCCCC3)c2[nH]1 [reversine]
- outcome in second synergist screen [1]: primary hits

Compound: NC(=O)c1ccc(-c2nc(-c3ccc4c(c3)OCO4)c(-c3ccccn3)[nH]2)cc1 [SB431542]
- efficiency and speed of development of pluripotent cells (Mouse fibroblasts): improved efficiency and speed of development of pluripotent cells

Compound: O=C(O)C(Cc1c[nH]c2ccccc12)N1C(=O)c2ccccc2C1=O (stereo not shown) [RG108]
- effect on reprogramming of OK transduced MEFs in the second screen [1]: enhanced reprogramming of OK transduced MEFs in the presence of BIX

- cellular reprogramming (cellular reprogramming; at 3 μM): enhance cellular reprogramming
Compound: C=C(c1ccc(C(=O)O)cc1)c1cc2c(cc1C)C(C)(C)CCC2(C)C [Bexarotene]

Compound: O=C(NOC[C@H](O)CO)c1ccc(F)c(F)c1Nc1ccc(I)cc1F [PD0325901]
- efficiency and speed of development of pluripotent cells (Mouse fibroblasts): improved efficiency and speed of development of pluripotent cells
- growth of non-iPS cells (non-iPS cells): inhibits growth of non-iPS cells
- growth and stable reprogramming of iPS cells (iPS cells): effectively promotes growth and stable reprogramming of iPS cells

Compound: COC(=O)C1=C(C)NC(C)=C([N+](=O)[O-])C1c1ccccc1C(F)(F)F (stereo not shown) [BayK]
- proliferation of mES cells (cell number) (mES R1 cells): No significant difference; also recorded: does not lead to a change in proliferation
- reprogramming activity on OK-transduced MEFs [2]: no observable reprogramming activity
- reprogramming efficiency versus OK-transduced MEF control ([1]; compound alone, in the absence of BIX (data not shown)): did not increase reprogramming efficiency above OK-transduced MEF control
- effect on reprogramming of OK transduced MEFs in the second screen [1]: strongest effect in the screen aside from known DNA/histone modifiers
- SOX2 expression [3]: does not induce SOX2 expression
